Assay in all cases: microscale thermophoresis (MST)
Holding throughout (format): binding
In general terms: MST reads how a fluorescent partner responds to local heating, with and without ligand.

The target in one experiment is T1, ENO1 (S254A) (Homo sapiens, UniProt P06733, S254A).
T1 construct: His-tagged ENO1 (S254A) protein

In the next experiment the target is T2, pyruvate kinase M (PKM) (Homo sapiens, UniProt P14618).
T2 construct: His-tagged PKM protein

The target of a further experiment is T3, alpha-enolase (ENO1) (Homo sapiens, UniProt P06733).
T3 construct: His-tagged ENO1 protein
T3 sequence (P06733 2-434): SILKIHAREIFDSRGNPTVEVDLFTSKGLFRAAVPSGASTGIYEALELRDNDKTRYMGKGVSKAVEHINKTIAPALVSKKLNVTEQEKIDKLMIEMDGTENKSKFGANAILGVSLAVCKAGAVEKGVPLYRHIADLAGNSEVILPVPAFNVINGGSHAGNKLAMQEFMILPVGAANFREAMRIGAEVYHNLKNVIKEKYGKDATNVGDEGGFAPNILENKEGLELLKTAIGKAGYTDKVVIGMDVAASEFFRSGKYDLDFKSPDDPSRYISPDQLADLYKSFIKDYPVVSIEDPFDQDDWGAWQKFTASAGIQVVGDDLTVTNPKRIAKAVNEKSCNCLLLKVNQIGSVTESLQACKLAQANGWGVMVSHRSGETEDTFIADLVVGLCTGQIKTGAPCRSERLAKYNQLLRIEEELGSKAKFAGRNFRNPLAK

Molecules are shown by their SMILES.

T2 sequence (P14618 2-531): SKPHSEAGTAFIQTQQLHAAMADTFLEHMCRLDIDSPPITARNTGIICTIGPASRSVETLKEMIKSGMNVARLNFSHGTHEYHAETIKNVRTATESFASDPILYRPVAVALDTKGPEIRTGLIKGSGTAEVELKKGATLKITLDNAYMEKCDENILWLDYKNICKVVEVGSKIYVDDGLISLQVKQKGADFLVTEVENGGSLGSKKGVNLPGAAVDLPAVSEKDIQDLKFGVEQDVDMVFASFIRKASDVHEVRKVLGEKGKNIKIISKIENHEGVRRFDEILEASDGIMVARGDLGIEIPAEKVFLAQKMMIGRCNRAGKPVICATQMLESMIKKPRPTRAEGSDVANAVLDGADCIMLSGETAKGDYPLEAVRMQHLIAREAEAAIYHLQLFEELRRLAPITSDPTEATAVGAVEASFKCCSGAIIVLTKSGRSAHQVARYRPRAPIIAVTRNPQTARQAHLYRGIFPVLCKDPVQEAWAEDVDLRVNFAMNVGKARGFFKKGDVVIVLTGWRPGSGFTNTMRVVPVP
T1 sequence (P06733 2-434 S254A): as the sequence (P06733 2-434) above, with S253A counted along it

One may read the Kd as the constant that tells how readily two partners part at equilibrium. `CCOC(=O)c1nc(-c2ccc(C(F)(F)F)cc2)oc1-c1cccc(C)c1` [KB2764]: the Kd at ENO1 (S254A) is 240 µM; at pyruvate kinase M (PKM), 9.32 µM; at alpha-enolase (ENO1), 0.0401 µM.

These data come from publication PMC12508687, “Elucidating the Role and Mechanism of Alpha‐Enolase in Senescent Amelioration via Metabolic Reprogramming” (Cell Proliferation, 2025).
